# Data taken from patent US10464918B2, “Process of making somatostatin modulators” (Crinetics Pharmaceuticals, Inc., priority 2018, dated 2019).
# Structures can show the parent of a compound that is named as a salt. Where two headings read alike, the source gives them in different places.
# Legend:
# human SSTR2 = human SSTR2 (Homo sapiens (Human), UniProt P30874); experiment: Functional cAMP assay for SSTR2 agonists; type: cell-based; conditions: inhibition of cAMP activities via human SST2R; CHO-K1 cells stably expressing human SSTR2
# Description: General overview: All five SSTR subtypes are Gi coupled G-protein coupled receptors (GPCRs) that lead to decreases in intracellular cyclic AMP (cAMP) when activated by an agonist. […] Human SSTR2 intracellular cAMP assay is described below. The human SSTR1, 3, 4 and 5 assays follow the same protocol of SSTR2.
# The cells are cultured at 37° C., 5% CO2 and 95% humidity. […] The cells are incubated for 20 minutes at 37° C. […] The cells are treated with 50 μL of lysis buffer (HRTF cAMP kit, Cisbio). The lysate is transferred to 384-well plates and cAMP detection and visualization antibodies are added and incubated for 1-24 hours at room temperature. The time-resolved fluorescent signal is read with a Tecan M1000Pro multiplate reader. The intracellular cAMP concentrations are calculated by regression to a standard curve and are plotted vs. the concentration of the compounds of the invention and the EC50 of the compounds are calculated using standard methods. All data manipulations are in GraphPad Prism v6.
# [1] = Solubility in water, FaSSGF and FaSSIF (slurry, HPLC); type: physicochemical; conditions: slurried at 37° C. for 2 days; for solubility at 2 days: 37 °C, thermodynamic from solid
# Description: The salt forms were slurried in water, Fasted State Simulated Gastric Fluid (FaSSGF), and Fasted State Simulated Intestinal Fluid (FaSSIF) at 37° C. for 2 days. Part of the slurry was filtered using a […] syringe filter to recover the supernatant for solubility measurement and the rest was filtered to recover the remaining solid for XRPD analysis.
# A calibration curve was developed for measuring concentration via HPLC. Compound A was added to a 100 mL volumetric flask and then filled to the volume with HPLC grade ethanol. […] A 30 minute gradient method with Solvent A as water with 0.1% TFA and solvent B as Methanol:Acetonitrile (1:1) was used.
# The calibration correlation was used to measure the solubility of the salt forms. From the clear saturated solution, 0.1 mL liquid was transferred into a 10 mL vial and then filled to the volume with methanol. The solution was then directly injected into the HPLC.
# [2] = Dynamic Vapor Sorption (DVS); type: physicochemical; conditions: for XRPD after DVS analysis: DVS between 2 and 95% RH
# Description: Dynamic Vapor Sorption (DVS) was done using a DVS Intrinsic 1. The sample is loaded into a sample pan and suspended from a microbalance. A typical sample mass for DVS measurement is 25 mg. Nitrogen gas bubbled through distilled water provides the desired relative humidity.
# A typical measurement includes the steps: • 1—Equilibrate at 50% RH • 2—50% to 2%. (50%, 40%, 30%, 20%, 10% and 2%) • a. Hold minimum of 5 mins and maximum of 60 minutes at each humidity. The pass criteria is less than 0.002% change • 3—2% to 95% (2%, 10%, 20%, 30%, 40%, 50%, 60%, 70%, 80%, 90%, 95%) • a. Hold minimum of 5 mins and maximum of 60 minutes at each humidity. The pass criteria is less than 0.002% change • 4—95% to 2% (95%, 80%, 70%, 60%, 50%, 40%, 30%, 20%, 10%, 2%) • a. Hold minimum of 5 mins and maximum of 60 minutes at each humidity. The pass criteria is less than 0.002% change • 5—2% to 50% (2%, 10%, 20%, 30%, 40%, 50%) • a. Hold minimum of 5 mins and maximum of 60 minutes at each humidity. The pass criteria is less than 0.002% change
# [3] = Thermal study (TGA/DSC heating followed by XRPD); type: physicochemical; conditions: heated by TGA/DSC, cooled to RT
# Description: Differential Scanning calorimetry (DSC) was done using a Mettler Toledo DSC3+. Aluminum crucible with cramped pinned lid were used. The heating rates are usually 10° C. per minute from 30 to 250° C. Thermogravimetric Analysis (TGA) was done using a Mettler Toledo TGA/DSC3+. Aluminum crucible with cramped pinned lid were used. The heating rates are usually 10° C. per minute from 30 to 250° C. […] These peaks were evaluated using thermal analysis and XRPD techniques. Compound A-HCl was heated to various temperatures using TGA/DSC followed by cooling to room temperature and analysis using XRPD. […] The following thermal treatments were performed: Sample 1: heated the salt to 100° C. and cooled to RT followed by XRPD; Sample 2: heated the salt to 150° C. and cooled to RT followed by XRPD; Sample 3: heated the salt to 200° C. and cooled to RT followed by XRPD; Sample 4: heated the salt to 250° C. and cooled to RT followed by XRPD; and Sample 5: heated the salt to 295° C. and cooled to RT followed by XRPD.
# [4] = Fasted State Simulated Gastric Fluid (FaSSGF), fassgf or other biorelevant, Fasted State Simulated Gastric Fluid, read-out: Solubility in FaSSGF
# [5] = Fasted State Simulated Intestinal Fluid (FaSSIF), fassif, Fasted State Simulated Intestinal Fluid, read-out: Solubility in FaSSIF
# Sequence of human SSTR2 (P30874 whole entry): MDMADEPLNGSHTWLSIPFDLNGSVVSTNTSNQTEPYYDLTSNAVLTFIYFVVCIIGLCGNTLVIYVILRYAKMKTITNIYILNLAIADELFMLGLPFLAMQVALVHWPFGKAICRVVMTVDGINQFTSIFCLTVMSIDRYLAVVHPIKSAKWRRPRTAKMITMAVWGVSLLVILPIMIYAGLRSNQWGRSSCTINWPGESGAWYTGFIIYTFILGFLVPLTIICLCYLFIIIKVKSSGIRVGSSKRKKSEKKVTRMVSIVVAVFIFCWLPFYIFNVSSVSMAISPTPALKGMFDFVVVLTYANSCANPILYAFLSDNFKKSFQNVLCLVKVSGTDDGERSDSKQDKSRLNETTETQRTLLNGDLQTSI
smiles,measurement,setting,value
"O/N=C/c1cccc(-c2ccc3ncc(-c4cc(F)cc(F)c4)c(N4CC[C@@H]5NCCO[C@H]5C4)c3c2)c1O [Compound 1-1, 2-{4-[(4aS,8aS)-octahydro-1H-pyrido[3,4-b][1,4]oxazin-6-yl]-3-(3,5-difluorophenyl)quinolin-6-yl}-6-[(1E)-(hydroxyimino)methyl]phenol]",EC50,human SSTR2,< 10 nM
"CO/N=C/c1ccnc(-c2ccc3ncc(-c4cc(C)cc(F)c4)c(N4CC[C@@H]5NCCO[C@H]5C4)c3c2)c1N [Compound 1-2, 2-{4-[(4aS,8aS)-octahydro-1H-pyrido[3,4-b][1,4]oxazin-6-yl]-3-(3-fluoro-5-methylphenyl)quinolin-6-yl}-4-[(1E)-(methoxyimino)methyl]pyridin-3-amine]",EC50,human SSTR2,< 10 nM
"CO/N=C/c1ccnc(-c2ccc3ncc(-c4cc(F)cc(Cl)c4)c(N4CC[C@@H]5NCCO[C@H]5C4)c3c2)c1N [Compound 1-3, 2-{4-[(4aS,8aS)-octahydro-1H-pyrido[3,4-b][1,4]oxazin-6-yl]-3-(3-chloro-5-fluorophenyl)quinolin-6-yl}-4-[(1E)-(methoxyimino)methyl]pyridin-3-amine]",EC50,human SSTR2,< 10 nM
"Cc1cc(F)cc(-c2cnc3ccc(-c4nccc(C#N)c4N)cc3c2N2CC[C@@H]3NCCO[C@H]3C2)c1 [Compound 1-4, 2-{4-[(4aS,8aS)-octahydro-1H-pyrido[3,4-b][1,4]oxazin-6-yl]-3-(3-fluoro-5-methylphenyl)quinolin-6-yl}-3-aminopyridine-4-carbonitrile]",EC50,human SSTR2,< 10 nM
"N#Cc1ccnc(-c2ccc3ncc(-c4cc(F)cc(Cl)c4)c(N4CC[C@@H]5NCCO[C@H]5C4)c3c2)c1N [Compound 1-5, 2-{4-[(4aS,8aS)-octahydro-1H-pyrido[3,4-b][1,4]oxazin-6-yl]-3-(3-chloro-5-fluorophenyl)quinolin-6-yl}-3-aminopyridine-4-carbonitrile]",EC50,human SSTR2,< 10 nM
"Nc1c(/C=N/O)ccnc1-c1ccc2ncc(-c3cc(F)cc(F)c3)c(N3CC[C@@H]4NCCO[C@H]4C3)c2c1 [Compound 1-6, 2-{4-[(4aS,8aS)-octahydro-1H-pyrido[3,4-b][1,4]oxazin-6-yl]-3-(3,5-difluorophenyl)quinolin-6-yl}-4-[(1E)-(hydroxyimino)methyl]pyridin-3-amine]",EC50,human SSTR2,< 10 nM
"N#Cc1ccnc(-c2ccc3ncc(-c4cccc(F)c4)c(N4CC[C@@H]5NCCO[C@H]5C4)c3c2)c1N [Compound 1-7, 2-{4-[(4aS,8aS)-octahydro-1H-pyrido[3,4-b][1,4]oxazin-6-yl]-3-(3-fluorophenyl)quinolin-6-yl}-3-aminopyridine-4-carbonitrile]",EC50,human SSTR2,< 10 nM
"Cc1ccnc(-c2ccc3ncc(-c4cccc(F)c4)c(N4CC[C@@H]5NCCO[C@H]5C4)c3c2)c1N [Compound 1-8, 2-{4-[(4aS,8aS)-octahydro-1H-pyrido[3,4-b][1,4]oxazin-6-yl]-3-(3-fluorophenyl)quinolin-6-yl}-4-methylpyridin-3-amine]",EC50,human SSTR2,< 10 nM
"Cc1cc(F)cc(-c2cnc3ccc(-c4cccc(C#N)c4O)c(F)c3c2N2CCC(N)CC2)c1 [Compound 1-9, 3-[4-(4-aminopiperidin-1-yl)-5-fluoro-3-(3-fluoro-5-methylphenyl)quinolin-6-yl]-2-hydroxybenzonitrile]",EC50,human SSTR2,< 10 nM
"Cc1cc(F)cc(-c2cnc3cc(F)c(-c4cccc(C#N)c4O)cc3c2N2CCC(N)CC2)c1 [Compound 1-10, 3-[4-(4-aminopiperidin-1-yl)-7-fluoro-3-(3-fluoro-5-methylphenyl)quinolin-6-yl]-2-hydroxybenzonitrile]",EC50,human SSTR2,< 10 nM
"N#Cc1cccc(-c2ccc3ncc(-c4cc(F)cc(F)c4)c(N4CCC(N)CC4)c3c2)c1O [Compound A, 3-(4-(4-amino-piperidin-1-yl)-3-(3,5-difluoro-phenyl)-quinolin-6-yl)-2-hydroxy-benzonitrile]",EC50,human SSTR2,< 10 nM
same,solubility at 2 days,[1]; [4],2430 µg/mL
same,solubility at 2 days,[1]; [5],13 µg/mL
same,Solubility in Water,"[1]; water, listed as Compound A (free base)",5 µg/mL
"N#Cc1cccc(-c2ccc3ncc(-c4cc(F)cc(F)c4)c(N4CCC(N)CC4)c3c2)c1O [Compound A-2HCl, 3-[4-(4-amino-piperidin-1-yl)-3-(3,5-difluoro-phenyl)-quinolin-6-yl]-2-hydroxy-benzonitrile dihydrochloride]",Solubility in FaSSGF,"[1]; Fasted State Simulated Gastric Fluid, dihydrochloride",3690 µg/mL
same,Solubility in FaSSIF,"[1]; Fasted State Simulated Intestinal Fluid, dihydrochloride",11 µg/mL
same,Solubility in Water,"[1]; water, dihydrochloride",5630 µg/mL
same,XRPD after DVS analysis,[2],unchanged
same,reversible water uptake,[2]; between 2 and 95% RH,~18 % w/w
same,reversible water uptake,[2]; between 15 and 75% RH,~9 % w/w
"Cl.N#Cc1cccc(-c2ccc3ncc(-c4cc(F)cc(F)c4)c(N4CCC(N)CC4)c3c2)c1O [Compound A-HCl, 3-[4-(4-amino-piperidin-1-yl)-3-(3,5-difluoro-phenyl)-quinolin-6-yl]-2-hydroxy-benzonitrile monohydrochloride]",solubility at 2 days,[1]; [4],2120 µg/mL
same,solubility at 2 days,[1]; [5],10 µg/mL
same,solubility at 2 days,"[1]; water, water, water, read-out: Solubility in Water",830 µg/mL
same,XRPD after DVS analysis,[2],unchanged
same,reversible water uptake,[2]; between 2 and 95% RH,~4.5 % w/w
same,reversible water uptake,[2]; between 15 and 75% RH,~2.3 % w/w
same,temperature up to which the solid is intact,[3],up to 200 °C
